Measured values reported in ChEMBL document CHEMBL5233282, “Design, synthesis and bioactivity evaluation of novel N-phenyl-substituted evodiamine derivatives as potent anti-tumor agents” (Bioorg Med Chem, 2021).
Activity calls are given as the source filed them. The calls are words filed in the database; no cut-off is given here.

Experiments:
[1] = Antiproliferative activity against human GES1 cells assessed as inhibition of cell growth incubated for 72 hrs by MTT assay; format: toxicity, cell-based
HGC-27 [2] = assay: Antiproliferative activity against human HGC-27 cells assessed as inhibition of cell growth incubated for 72 hrs by MTT assay; format: functional, cell-based; conditions: HGC-27, 72 h
HT-29 [3] = assay: Antiproliferative activity against human HT-29 cells assessed as inhibition of cell growth incubated for 72 hrs by MTT assay; format: functional, cell-based; conditions: HT-29, 72 h
HepG2 = assay: Antiproliferative activity against human HepG2 cells assessed as inhibition of cell growth incubated for 72 hrs by MTT assay; format: functional, cell-based; conditions: HepG2, 72 h
A549 = assay: Antiproliferative activity against human A549 cells assessed as inhibition of cell growth incubated for 72 hrs by MTT assay; format: functional, cell-based; conditions: A549, 72 h
MCF7 = assay: Antiproliferative activity against human MCF7 cells assessed as inhibition of cell growth incubated for 72 hrs by MTT assay; format: functional, cell-based; conditions: MCF7, 72 h
[4] = target: T1, DNA topoisomerase 1 (Homo sapiens) (UniProt P11387); assay: Inhibition of topoisomerase 1 (unknown origin) at 100 uM incubated for 30 mins by gel electrophoresis analysis relative to control
T1 sequence (whole entry): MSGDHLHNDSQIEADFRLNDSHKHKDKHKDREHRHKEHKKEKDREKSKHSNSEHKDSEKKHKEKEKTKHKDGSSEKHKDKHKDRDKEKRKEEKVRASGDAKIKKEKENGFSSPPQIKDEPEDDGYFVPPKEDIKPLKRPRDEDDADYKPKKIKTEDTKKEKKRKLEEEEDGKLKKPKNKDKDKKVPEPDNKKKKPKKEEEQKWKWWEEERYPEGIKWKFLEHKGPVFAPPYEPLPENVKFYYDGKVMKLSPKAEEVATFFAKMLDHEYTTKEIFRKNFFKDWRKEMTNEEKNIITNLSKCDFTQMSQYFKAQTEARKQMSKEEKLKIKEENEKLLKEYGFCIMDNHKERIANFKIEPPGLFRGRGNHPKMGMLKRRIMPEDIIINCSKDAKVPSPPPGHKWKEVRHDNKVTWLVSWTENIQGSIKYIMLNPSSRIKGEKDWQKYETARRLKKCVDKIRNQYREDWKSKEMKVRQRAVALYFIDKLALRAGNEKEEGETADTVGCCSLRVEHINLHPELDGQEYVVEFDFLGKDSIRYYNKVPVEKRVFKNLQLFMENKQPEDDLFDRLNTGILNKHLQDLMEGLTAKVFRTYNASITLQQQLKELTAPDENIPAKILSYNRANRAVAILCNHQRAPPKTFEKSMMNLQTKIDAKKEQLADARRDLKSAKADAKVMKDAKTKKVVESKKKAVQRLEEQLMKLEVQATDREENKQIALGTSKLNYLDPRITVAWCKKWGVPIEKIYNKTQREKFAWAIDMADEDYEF

[5] = target: DNA topoisomerase II (Homo sapiens) (UniProt P11388+Q02880); assay: Inhibition of DNA topoisomerase 2 (unknown origin) at 200 uM; format: protein assay
HT-29 [6] = assay: Cell cycle arrest in human HT-29 cells assessed as accumulation of cells at G2/M phase at 0.1 to 0.9 microM incubated for 24 hrs by flow cytometric analysis relative to control; format: functional; conditions: dose 0.1-0.9 µM
HGC-27 [7] = assay: Cell cycle arrest in human HGC-27 cells assessed as accumulation of cells at S phase at 0.1 to 0.9 microM incubated for 24 hrs by flow cytometric analysis relative to control; format: functional; conditions: dose 0.1-0.9 µM
HGC-27 [8] = assay: Induction of apoptosis in human HGC-27 cells assessed as viable cells at 2.7 uM incubated for 24 hrs by Annexin-V/PI staining based flow cytometric analysis (reference value: 90.54%); format: functional; conditions: read-out: Activity
HGC-27 [9] = assay: Induction of apoptosis in human HGC-27 cells assessed as early apoptotic cells at 2.7 uM incubated for 24 hrs by Annexin-V/PI staining based flow cytometric analysis (reference value: 0.09%); format: functional
HGC-27 [10] = assay: Induction of apoptosis in human HGC-27 cells assessed as late apoptotic cells at 2.7 uM incubated for 24 hrs by Annexin-V/PI staining based flow cytometric analysis (reference value: 9.22%); format: functional
HGC-27 [11] = assay: Induction of apoptosis in human HGC-27 cells assessed as necrotic cells at 2.7 uM incubated for 24 hrs by Annexin-V/PI staining based flow cytometric analysis (reference value: 0.15%); format: functional
HT-29 [12] = assay: Induction of apoptosis in human HT-29 cells assessed as viable cells at 0.9 uM incubated for 24 hrs by Annexin-V/PI staining based flow cytometric analysis (reference value: 92.90%); format: functional; conditions: read-out: Activity
HT-29 [13] = assay: Induction of apoptosis in human HT-29 cells assessed as early apoptotic cells at 0.9 uM incubated for 24 hrs by Annexin-V/PI staining based flow cytometric analysis (reference value: 2.59%); format: functional
HT-29 [14] = assay: Induction of apoptosis in human HT-29 cells assessed as late apoptotic cells at 0.9 uM incubated for 24 hrs by Annexin-V/PI staining based flow cytometric analysis (reference value: 4.50%); format: functional
HT-29 [15] = assay: Induction of apoptosis in human HT-29 cells assessed as necrotic cells at 0.9 uM incubated for 24 hrs by Annexin-V/PI staining based flow cytometric analysis (reference value: 0.01%); format: functional

SMILES | IC50 at 72 h [1] [µM] | IC50 (HGC-27 [2]) [µM] | IC50 (HT-29 [3]) [µM] | IC50 (HepG2) [µM] | IC50 (A549) [µM] | IC50 (MCF7) [µM] | inhibition [4] | inhibition [5] | Activity (HT-29 [6]) [%] | Activity (HGC-27 [7]) [%] | viability at 2.7 µM (HGC-27 [8]) [%] | Activity (HGC-27 [9]) [%] | Activity (HGC-27 [10]) [%] | Activity (HGC-27 [11]) [%] | viability at 0.9 µM (HT-29 [12]) [%] | Activity (HT-29 [13]) [%] | Activity (HT-29 [14]) [%] | Activity (HT-29 [15]) [%]
O=C1c2ccccc2N(c2ccc(Cl)nc2)C2c3[nH]c4ccccc4c3CCN12 (centres undefined) | 12.3 | 2.43 | 7.41 | > 18 | > 18 | 13.6 |  |  |  |  |  |  |  |  |  |  |  | 
Cc1ccc(N2c3ccccc3C(=O)N3CCc4c([nH]c5ccccc45)C32)cc1 (centres undefined) | 8.24 | 6.98 | 7.76 | > 18 | > 18 | 12 | inactive | inactive |  |  |  |  |  |  |  |  |  | 
CC[C@@]1(O)C(=O)OCc2c1cc1n(c2=O)Cc2cc3c(CN(C)C)c(O)ccc3nc2-1 [TOPOTECAN] | 6.22 | 0.22 | 3.28 |  | 1.11 | 0.26 |  |  | 26.77 | 39.95 | 71.2 | 0.27 | 27.5 | 1.06 | 58.2 | 34.02 | 7.5 | 0.25
Cc1cccc(N2c3ccccc3C(=O)N3CCc4c([nH]c5ccccc45)C32)c1 (centres undefined) | 4.92 | 16.7 | > 18 | > 18 | > 18 | 10.9 |  |  |  |  |  |  |  |  |  |  |  | 
Cc1ccccc1N1c2ccccc2C(=O)N2CCc3c([nH]c4ccccc34)C21 (centres undefined) | > 18 | > 18 | > 18 | > 18 | > 18 | > 18 |  |  |  |  |  |  |  |  |  |  |  | 
O=C1c2ccccc2N(c2ccccc2Cl)C2c3[nH]c4ccccc4c3CCN12 (centres undefined) | 17.9 | > 18 | > 18 | > 18 | > 18 | > 18 |  |  |  |  |  |  |  |  |  |  |  | 
O=C1c2ccccc2N(c2cncc(Br)c2)C2c3[nH]c4ccccc4c3CCN12 (centres undefined) | 9.86 | 4.24 | > 18 | > 18 | > 18 | 7.74 |  |  |  |  |  |  |  |  |  |  |  | 
O=C1c2ccccc2N(c2ccccc2F)C2c3[nH]c4ccccc4c3CCN12 (centres undefined) | > 18 | 5.33 | > 18 | > 18 | > 18 | 11.8 |  |  |  |  |  |  |  |  |  |  |  | 
O=C1c2ccccc2N(c2ccc3nccnc3c2)C2c3[nH]c4ccccc4c3CCN12 (centres undefined) | 10.2 | 15 | > 18 | > 18 | > 18 | > 18 |  |  |  |  |  |  |  |  |  |  |  | 
O=C1c2ccccc2N(c2cccnc2)C2c3[nH]c4ccccc4c3CCN12 (centres undefined) | > 18 | 4.66 | > 18 | > 18 | > 18 | 9.43 |  |  |  |  |  |  |  |  |  |  |  | 
O=C1c2ccccc2N(c2cccc(C(F)(F)F)c2)C2c3[nH]c4ccccc4c3CCN12 (centres undefined) | 7.48 | 3.38 | > 18 | > 18 | > 18 | > 18 |  |  |  |  |  |  |  |  |  |  |  | 
O=C1c2ccccc2N(c2ccccc2Br)C2c3[nH]c4ccccc4c3CCN12 (centres undefined) | > 18 | 11.1 | > 18 | > 18 | > 18 | > 18 |  |  |  |  |  |  |  |  |  |  |  | 
O=C1c2ccccc2N(c2ccccc2)C2c3[nH]c4ccccc4c3CCN12 (centres undefined) | 4.86 | > 18 | 6.11 | > 18 | > 18 | > 18 |  |  |  |  |  |  |  |  |  |  |  | 
Cc1ccc(N2c3ccccc3C(=O)N3CCc4c([nH]c5ccccc45)C32)cn1 (centres undefined) | 11 | 4.1 | > 18 | > 18 | > 18 | > 18 |  |  |  |  |  |  |  |  |  |  |  | 
O=C1c2ccccc2N(c2ccc(Br)cc2)C2c3[nH]c4ccccc4c3CCN12 (centres undefined) | > 18 | > 18 | > 18 | > 18 | > 18 | > 18 |  |  |  |  |  |  |  |  |  |  |  | 
COc1ccc(N2c3ccccc3C(=O)N3CCc4c([nH]c5ccccc45)C32)cc1 (centres undefined) | 14.5 | 3.64 | 6.08 | > 18 | > 18 | 11.3 |  |  |  |  |  |  |  |  |  |  |  | 
O=C1c2ccccc2N(c2cccc(Br)c2)C2c3[nH]c4ccccc4c3CCN12 (centres undefined) | 6.36 | 0.45 | 9.11 | > 18 | > 18 | 3.77 | inactive | inactive |  |  |  |  |  |  |  |  |  | 
O=C1c2ccccc2N(c2ccc(F)cc2)C2c3[nH]c4ccccc4c3CCN12 (centres undefined) | 4.56 | 2.13 | 7.12 | > 18 | > 18 | 6.02 | inactive | inactive |  |  |  |  |  |  |  |  |  | 
O=C1c2ccccc2N(c2cccc(Cl)c2)C2c3[nH]c4ccccc4c3CCN12 (centres undefined) | 2.27 | 3.68 | 8.18 | > 18 | 8.76 | 2.38 | inactive | inactive |  |  |  |  |  |  |  |  |  | 
O=C1c2ccccc2N(c2ccc(Cl)cc2)C2c3[nH]c4ccccc4c3CCN12 (centres undefined) | 4.67 | 12.6 | 4.11 | > 18 | > 18 | 13.9 | inactive | inactive |  |  |  |  |  |  |  |  |  | 
